Data as given in patent US8952163B2, “Substituted hydroxamic acids and uses thereof” (Millennium Pharmaceuticals, Inc., priority 2010, dated 2015).

Target: T1, purified human HDAC6 (Homo sapiens, UniProt Q9UBN7)
T1 construct: purchased BPS Bioscience 5006
T1 sequence (Q9UBN7 1-1215): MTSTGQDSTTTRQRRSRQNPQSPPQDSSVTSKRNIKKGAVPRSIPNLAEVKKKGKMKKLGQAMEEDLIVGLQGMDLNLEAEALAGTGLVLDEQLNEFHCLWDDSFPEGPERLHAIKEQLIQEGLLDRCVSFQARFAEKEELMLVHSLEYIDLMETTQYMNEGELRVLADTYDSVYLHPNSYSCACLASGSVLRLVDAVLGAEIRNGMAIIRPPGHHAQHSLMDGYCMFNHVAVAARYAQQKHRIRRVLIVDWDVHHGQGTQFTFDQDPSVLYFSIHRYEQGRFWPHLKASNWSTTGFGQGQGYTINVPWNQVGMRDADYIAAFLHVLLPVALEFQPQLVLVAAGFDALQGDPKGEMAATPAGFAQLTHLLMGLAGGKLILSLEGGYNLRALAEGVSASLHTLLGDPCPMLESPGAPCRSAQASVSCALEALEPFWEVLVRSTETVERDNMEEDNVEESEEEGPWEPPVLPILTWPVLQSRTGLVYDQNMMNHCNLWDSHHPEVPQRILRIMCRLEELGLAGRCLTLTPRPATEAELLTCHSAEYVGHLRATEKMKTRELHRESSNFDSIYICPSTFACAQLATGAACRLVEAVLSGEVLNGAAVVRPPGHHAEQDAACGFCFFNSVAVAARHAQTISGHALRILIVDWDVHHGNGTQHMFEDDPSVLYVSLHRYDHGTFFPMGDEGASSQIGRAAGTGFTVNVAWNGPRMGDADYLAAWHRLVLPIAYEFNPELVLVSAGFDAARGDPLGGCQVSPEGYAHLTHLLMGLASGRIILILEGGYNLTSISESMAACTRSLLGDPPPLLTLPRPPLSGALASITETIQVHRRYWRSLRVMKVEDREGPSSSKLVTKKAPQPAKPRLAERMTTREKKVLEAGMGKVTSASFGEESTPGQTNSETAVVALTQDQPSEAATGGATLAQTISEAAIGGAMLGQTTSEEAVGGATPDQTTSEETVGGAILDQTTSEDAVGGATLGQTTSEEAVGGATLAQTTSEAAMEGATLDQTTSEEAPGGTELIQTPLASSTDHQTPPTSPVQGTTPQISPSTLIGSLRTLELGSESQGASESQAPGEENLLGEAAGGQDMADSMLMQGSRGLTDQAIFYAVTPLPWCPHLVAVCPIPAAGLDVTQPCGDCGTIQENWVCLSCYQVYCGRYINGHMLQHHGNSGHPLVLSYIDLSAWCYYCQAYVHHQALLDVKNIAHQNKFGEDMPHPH
Assay: HDAC6 Enzyme Assay
Assay type: biochemical
Details: test compound at 1.235 μM; substrate Ac-Arg-Gly-Lys(Ac)-AMC, 1 hour at 30° C.; read-out: Percent Inhibition at 1.235 μM
Experimental: To measure the inhibition of HDAC6 activity, purified human HDAC6 (BPS Bioscience; Cat. No. 5006) is incubated with substrate Ac-Arg-Gly-Lys(Ac)-AMC peptide (Bachem Biosciences; Cat. No. I-1925) for 1 hour at 30° C. in the presence of test compounds or vehicle DMSO control. The reaction is stopped with the HDAC inhibitor trichostatin A (Sigma; Cat. No. T8552) and the amount of Arg-Gly-Lys-AMC generated is quantitated by digestion with trypsin (Sigma; Cat. No. T1426) and subsequent measurement of the amount of AMC released using a fluorescent plate reader (Pherastar, BMG Technologies) set at Ex 340 nm and Em 460 nm. Concentration response curves are generated by calculating the fluorescence increase in test compound-treated samples relative to DMSO-treated controls, and percentage inhibition values at a single concentration or enzyme inhibition (IC50) values are determined from those curves. One skilled in the art will appreciate that the values generated either as percentage inhibition at a single concentration or IC50 values are subject to experimental variation.

| SMILES | inhibition at 1.235 µM [%] |
| --- | --- |
| CC(C)(C)C(=O)N1CCc2ncc(C(=O)NO)cc2C1 [Compound I-30, 6-(2,2-dimethylpropanoyl)-N-hydroxy-5,6,7,8-tetrahydro-1,6-naphthyridine-3-carboxamide] | 85 |
| O=C(NO)c1cnc2c(c1)CN(C(=O)C13CC4CC(CC(C4)C1)C3)CC2 [Compound I-31, 6-[1-adamantylcarbonyl]-N-hydroxy-5,6,7,8-tetrahydro-1,6-naphthyridine-3-carboxamide] | 93.8 |
| COc1ccc(C(=O)N2CCc3ncc(C(=O)NO)cc3C2)cc1 [Compound I-32, N-hydroxy-6-(4-methoxybenzoyl)-5,6,7,8-tetrahydro-1,6-naphthyridine-3-carboxamide] | 93 |
| O=C(NO)c1ccc2c(n1)CCN(C(=O)c1ccc(Cl)cc1)C2 [Compound I-33, 6-(4-chlorobenzoyl)-N-hydroxy-5,6,7,8-tetrahydro-1,6-naphthyridine-2-carboxamide] | 68.8 |
| O=C(NO)c1ccc2c(n1)CCN(C(=O)Nc1ccccc1-c1ccccc1)C2 [Compound I-34, N^6-biphenyl-2-yl-N^2-hydroxy-7,8-dihydro-1,6-naphthyridine-2,6(5H)-dicarboxamide] | 48.2 |
| COc1ccc(C(=O)N2CCc3nc(C(=O)NO)ccc3C2)cc1 [Compound I-35, N-hydroxy-6-(4-methoxybenzoyl)-5,6,7,8-tetrahydro-1,6-naphthyridine-2-carboxamide] | 67 |
| CCCNC(=O)N1CCc2nc(C(=O)NO)ccc2C1 [Compound I-36, N^2-hydroxy-N^6-propyl-7,8-dihydro-1,6-naphthyridine-2,6(5H)-dicarboxamide] | 26.5 |
| O=C(NO)c1cnc2c(c1)CCN(C(=O)c1[nH]c3ccccc3c1-c1ccccc1)C2 [Compound I-37, N-hydroxy-7-[(3-phenyl-1H-indol-2-yl)carbonyl]-5,6,7,8-tetrahydro-1,7-naphthyridine-3-carboxamide] | 93.7 |
| O=C(NO)c1ccc2c(n1)CCN(Cc1ccccc1)C2 [Compound I-38, 6-benzyl-N-hydroxy-5,6,7,8-tetrahydro-1,6-naphthyridine-2-carboxamide] | 60.2 |
| Cn1cccc1C(=O)N1CCc2ncc(C(=O)NO)cc2C1 [Compound I-39, N-hydroxy-6-[(1-methyl-1H-pyrrol-2-yl)carbonyl]-5,6,7,8-tetrahydro-1,6-naphthyridine-3-carboxamide] | 92.5 |
| CC(C)(C)c1ccccc1NC(=O)N1CCc2nc(C(=O)NO)ccc2C1 [Compound I-40, N^6-(2-tert-butylphenyl)-N^2-hydroxy-7,8-dihydro-1,6-naphthyridine-2,6(5H)-dicarboxamide] | 50.4 |
| CC(C)(C)c1ccc(C(=O)N2CCc3cc(C(=O)NO)cnc3C2)cc1 [Compound I-41, 7-(4-tert-butylbenzoyl)-N-hydroxy-5,6,7,8-tetrahydro-1,7-naphthyridine-3-carboxamide] | 93.4 |
| O=C(NO)c1cnc2c(c1)CN(C(=O)c1ccc(-c3ccccn3)s1)CC2 [Compound I-42, N-hydroxy-6-[(5-pyridin-2-yl-2-thienyl)carbonyl]-5,6,7,8-tetrahydro-1,6-naphthyridine-3-carboxamide] | 97.5 |
| CCCCOc1ccc(S(=O)(=O)N2CCc3ncc(C(=O)NO)cc3C2)cc1 [Compound I-57, 6-[(4-butoxyphenyl)sulfonyl]-N-hydroxy-5,6,7,8-tetrahydro-1,6-naphthyridine-3-carboxamide] | 94.1 |
| CCCCS(=O)(=O)N1CCc2ncc(C(=O)NO)cc2C1 [Compound I-58, 6-(butylsulfonyl)-N-hydroxy-5,6,7,8-tetrahydro-1,6-naphthyridine-3-carboxamide] | 94.5 |

Further lines, results first:

| inhibition at 1.235 µM [%] | SMILES |
| --- | --- |
| 23.4 | Cc1onc(-c2ccccc2)c1NC(=O)N1CCc2nc(C(=O)NO)ccc2C1 [Compound I-43, N^2-hydroxy-N^6-(5-methyl-3-phenylisoxazol-4-yl)-7,8-dihydro-1,6-naphthyridine-2,6(5H)-dicarboxamide] |
| 94.9 | O=C(NO)c1cnc2c(c1)CN(C(=O)c1cc3ccccc3o1)CC2 [Compound I-44, 6-(1-benzofuran-2-ylcarbonyl)-N-hydroxy-5,6,7,8-tetrahydro-1,6-naphthyridine-3-carboxamide] |
| 39 | CC(C)(C)NC(=O)N1CCc2nc(C(=O)NO)ccc2C1 [Compound I-45, N^6-(tert-butyl)-N^2-hydroxy-7,8-dihydro-1,6-naphthyridine-2,6(5H)-dicarboxamide] |
| 59 | CC(C)(C)C(=O)N1CCc2nc(C(=O)NO)ccc2C1 [Compound I-46, 6-(2,2-dimethylpropanoyl)-N-hydroxy-5,6,7,8-tetrahydro-1,6-naphthyridine-2-carboxamide] |
| 34.3 | CCc1cccc(CC)c1NC(=O)N1CCc2nc(C(=O)NO)ccc2C1 [Compound I-47, N^6-(2,6-diethylphenyl)-N^2-hydroxy-7,8-dihydro-1,6-naphthyridine-2,6(5H)-dicarboxamide] |
| 91.1 | COc1ccc(C(=O)N2CCc3cc(C(=O)NO)cnc3C2)cc1 [Compound I-48, N-hydroxy-7-(4-methoxybenzoyl)-5,6,7,8-tetrahydro-1,7-naphthyridine-3-carboxamide] |
| 94.1 | O=C(NO)c1ccc2c(n1)CCN(C(=O)c1cc3ccccc3s1)C2 [Compound I-49, 6-(1-benzothien-2-ylcarbonyl)-N-hydroxy-5,6,7,8-tetrahydro-1,6-naphthyridine-2-carboxamide] |
| 95.1 | CC(C)(C)c1ccc(C(=O)N2CCc3ncc(C(=O)NO)cc3C2)cc1 [Compound I-50, 6-(4-tert-butylbenzoyl)-N-hydroxy-5,6,7,8-tetrahydro-1,6-naphthyridine-3-carboxamide] |
| 63.4 | O=C(NO)c1ccc2c(n1)CCN(C(=O)Nc1ccccc1)C2 [Compound I-51, N^2-hydroxy-N^6-phenyl-7,8-dihydro-1,6-naphthyridine-2,6(5H)-dicarboxamide] |
| 97.4 | O=C(NO)c1cnc2c(c1)CN(C(=O)c1cc3ccccc3s1)CC2 [Compound I-52, 6-(1-benzothien-2-ylcarbonyl)-N-hydroxy-5,6,7,8-tetrahydro-1,6-naphthyridine-3-carboxamide] |
| 96.9 | O=C(NO)c1cnc2c(c1)CN(C(=O)c1ccc(-c3ccccc3)cc1)CC2 [Compound I-53, 6-(biphenyl-4-ylcarbonyl)-N-hydroxy-5,6,7,8-tetrahydro-1,6-naphthyridine-3-carboxamide] |
| 67.2 | O=C(NO)c1ccc2c(n1)CCN(C(=O)Nc1ccc(-c3ccccc3)s1)C2 [Compound I-54, N^2-hydroxy-N^6-(5-phenyl-2-thienyl)-7,8-dihydro-1,6-naphthyridine-2,6(5H)-dicarboxamide] |
| 58.3 | O=C(NO)c1ccc2c(n1)CCN(C(=O)NCCc1ccccc1)C2 [Compound I-55, N^2-hydroxy-N^6-(2-phenylethyl)-7,8-dihydro-1,6-naphthyridine-2,6(5H)-dicarboxamide] |
| 93 | CC1(C(=O)N2CCc3ncc(C(=O)NO)cc3C2)CCCCC1 [Compound I-56, N-hydroxy-6-[(1-methylcyclohexyl)carbonyl]-5,6,7,8-tetrahydro-1,6-naphthyridine-3-carboxamide] |
| 67.4 | O=C(NO)c1ccc2c(n1)CCN(S(=O)(=O)c1ccc(C(F)(F)F)cc1)C2 [Compound I-59, N-hydroxy-6-{[4-(trifluoromethyl)phenyl]sulfonyl}-5,6,7,8-tetrahydro-1,6-naphthyridine-2-carboxamide] |
